Laboratory results: US20060088897A1, “Modulators” (priority 2003, published 2006)

How the values were obtained:
Assay type in all cases: cell-based
N1E-115 cells [1] = assay: Microinjection of peptides into partially serum starved N1E-115 cells, phalloidin staining and confocal microscopy of cell morphology; settings: FIG. 8A
Protocol: (§1) Cells are starved for 2-3 h and then either injected with peptides (10 μg/ml) or exposed to peptides with bioporter reagent. Cells are incubated for a further 2 h before being stained with phalloiden and examined by confocal microscopy (as described in the materials and methods section). (A) The upper cells is injected with αP1 (a), or all cells injected with αP1*(b), or exposed to αP2 with bioporter reagent (c). […] Results are expressed as means+/−SEM of 3 experiments (n=333-426 cells). […] (D) Cells are exposed to bioporter reagent with αP2 and after 6 h double stained with αPAK and vinculin antibodies; (a) Vinculin/αPAK, (b) Vinculin and (c) αPAK. Bar=10 μM. Control bars are with IgG with bioporter/microinjection.
(§2) Cells are starved for 2-3 h and then injected with peptides. Cells are then incubated for 2 h before being stained with phalloiden and examined by confocal microscopy (as described in the materials and methods section). (A) Cells are injected with IgG (a), with αP2 (b), with βP2 (c) and γP2 (d). Bar=10 μM. (B) Cells are exposed to bioporter with peptides and presence of neurites, pronounced filopodia and pronounced lamellipodia/ruffles scored (definitions as in FIG. 7). (C) Cells are either exposed to bioporter reagent coated peptides (αP2 and βP2) and then IGF or serum starvation used to activate cells. For γP2 cells are injected with peptide and stimulated with serum. Filopodia and lamellipodia are scored by using time-lapse phase contrast microscopy. +/−SEM of 3 experiments (n=900). Control peptide is taken from the kinase domain and common to the three PAK isoforms.
Cells are plated out at 1.0×10^5 cells in 1 ml in a 35 mm dish containing 2 laminin coated coverslips. The coverslips are first marked with a grid using a fine permanent marker and then coated with laminin and incubated overnight in DMEM, 10% FCS, 1% AB/AM. The media is replaced with serum free media (DMEM, 1% AB/AM) and the cells starved for 1 hour so that they flattened and are easier to inject. The peptides are injected at 10 μg/ml in PBS, Rat IgG at 1 mg/ml is added to act as a marker for injected cells.
The cells are injected using an Eppendorf microinjection apparatus on an Axioplan inverted microscope equipped with a heated stage maintained at 37° C. and a 5% CO2 chamber. Humidity is maintained by a dish of sterile water inside the CO2 chamber. Cells in a grid square are injected and positive injection checked visually at the time of injection or after fixation and staining for the injected marker. After injection the cells are returned to the incubator for a further 2 hours. Giving a total time without serum of 4 hours.
The only difference between these two peptides being that the latter peptide is phosphorylated on serine and this modification prevents it from binding Nck (Zhao et al., 1998). To investigate the effects of peptides we first serum starve the cells for 2-4 h to activate Cdc42Hs and Rac.

N1E-115 cells [2] = assay: Double staining of peptide treated cells with vinculin and αPAK antibodies (focal complexes); settings: FIG. 7D
Protocol: as §1
For in situ analysis primary/secondary antibodies are used at 1:100 dilution. PAK antibodies, all from Santa-Cruz, are as follows; αPAK N-20 (raised to rat amino acids 2-21), αPAK C-19 (raised to rat amino acids 525-544), βPAK (raised to mouse amino acids 2-20), γPAK (raised to human amino acids 2-20) and γPAK (raised to human amino acids 2-20). Vinculin, paxillin, phosphotyrosine are from Sigma. Integrin antibodies β1-integrin and α6-integrin a gift from A. Sonneberg, NCI, Netherlands. Bac1 cells are seeded onto coverslips and then grown for 24 h before the media is replaced with either CSF free, serum free, or CSF/serum free. […]

N1E-115 cells [3] = assay: Axonal guidance towards IGF (preliminary experiments); settings: unpublished data
Description: In preliminary experiments we have also examined the effect of the PAK peptides on axonal guidance towards IGF in N1E-115 cells.

N1E-115 cells [4] = assay: Cell guidance assay at Laminin/CSPG boundary (axonal guidance)
Protocol: Effect of PAK peptides on neurite morphology. Cells are exposed to control peptide, αP 1*, αP2, βP2, or γP2 and neurite morphology assessed. (B) Cells are plated on coverslips that been treated to create a Laminin/CSGP boundary. After 6 h cells are examined for their ability to project neurites that crossed the substrate boundary. Cells exposed to bioporter coated peptides, (a) αP2, (b) βP2, and (c) γP2. […] Results are means+/−SEM (n=161-263). (C) Cells are exposed to peptides and after 6 h are scored for their ability to cross boundary from Laminin to CSPG.
The coverslips are washed and sterilised and then coated in one of the following ways.
A second layer of laminin is applied as a drop mixed with 1 μg/ml TRITC label. Coverslips are left for 1 hour at RT and then rinsed twice with sterile water before allowing to dry before use. (iii) Attractive/repulsive boundary. Slides are coated with CSPG 5 μg/ml for 1 hour at 37° C. in a humid chamber then rinsed once in sterile H2O and allowed to air dry before the drop of laminin at 10 μg/ml is applied to the centre of the coverslip and left for 1 hour at RT before rinsing twice in sterile water and allowing to dry before use. This coating is also done in reverse with the laminin applied first and then the tenascin or the CSPG applied second.
The cells are then seeded onto the prepared coverslips at 2×10^5 cells in 1 ml in a 35 mm petri dish, in DMEM, 10% FCS, and 1% AB/AM. Cells are allowed to attach overnight. The media is then removed and the coverslips rinsed in serum free media and incubated overnight (18 h) in serum free media. After the starvation the cells are fixed and stained to show the morphology of the cells at the boundary. Only neurites expressing neurofilamant are scored.
After 5 minutes, the cells are washed once with serum free DMEM media and then 1 ml of serum free DMEM is added to the tube containing the peptide and BioPorter mix it is vortexed gently before being added to the cells. The cells are incubated for 4 hours at 37° C. After the 4 hour incubation the cells are then incubated for a further 2 hours in 5% FCS DMEM or for cells undergoing a substrate guidance assay the 2 hour incubation is in serum free DMEM. The cells are fixed and stained.
Neurofilament positive neurites are scored for how they respond to Laminin/CSPG boundary. […] However, neurites do have distinct morphologies (FIG. 9A). Thus α, β and γ PAK are not essential for neurite outgrowth.

N1E-115 cells [5] = assay: Peptide delivery with BioPorter reagent, scoring of neurites, filopodia and lamellipodia/ruffles
Protocol: as §1, §2
BioPorter regent is supplied as a dried powder and must be dissolved in a solvent before use. To each tube of BioPorter reagent 250 μl of methanol is added and the powder is re-suspended by vortexing for 10-20 seconds. 10 μl of the mix is transferred into new eppendorf tubes; the methanol is allowed to evaporate for 2 hours in a laminar flow hood. The dried reagent is stored at −20° C.
Cells are plated out at 1.5×10^5 cells in a 35 mm dish containing 2 laminin-coated coverslips and incubated overnight. […]

**Q.** Which “effect on formation of lamellipodia, filopodia or neurites concluded from microinjection” value (N1E-115 cells [1]) does the source give for SNNGLDIQDKPPAPPMRNTS [αP2] here?
**A.** synergise with both Cdc42 and Rac to produce neurites

**Q.** What about the “αPAK containing focal complexes (FC's) after peptide treatment” value (N1E-115 cells [2]) of the same sequence?
**A.** leads to loss of FC's

**Q.** And the “effect on axonal guidance towards IGF” value (N1E-115 cells [3])?
**A.** do not affect guidance

**Q.** What about the “ability to detect the Laminin/CSPG boundary” value (N1E-115 cells [4]; FIG. 9C) of the same sequence?
**A.** not affected

**Q.** What about the neurite morphology (N1E-115 cells [4]; serum starved cells, FIG. 9A) of the same sequence?
**A.** indistinguishable from control cells

**Q.** And the “neurite phenotype compared with αP1” value (N1E-115 cells [5]; FIG. 7B)?
**A.** neurites that are thinner and longer

**Q.** What about the “percentage of cells possessing neurites compared with αP1” value (N1E-115 cells [5]; FIG. 7B) of the same sequence?
**A.** higher

**Q.** And the “optimal peptide concentration for the phenotypic changes” value (N1E-115 cells [5]; dosage dependent effect, FIG. 7C)?
**A.** 10 µg/mL
